Source: patent publication US12275733B2, “Substituted pyrido[3,4-b]indoles for the treatment of cartilage disorders” (Sanofi, priority 2016, dated 2025)

How the values were obtained:
ATDC5 cells = assay: Chondrogenesis activity assay in ATDC5 cells (collagen type II induction, immunofluorescence); type: cell-based, mouse; conditions: Mus musculus; for EC50: collagen type II induction in ATDC5 cells, concentration reaching 50% of maximum induction; for Emax: maximum percent induction of collagen type II relative to internal reference compound at 10 μM, ATDC5 cells
How it was run: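 Collagen type II was stained in fixed, permeabilized cells with an Alexa Fluor 488 secondary and measured by high-content fluorescence imaging. ATDC5 cells had 4 days at 37 °C in insulin-supplemented differentiation medium with compound, typically 40 nM–10 μM, 0.1% DMSO. DMSO wells and a 10 μM internal reference compound were used for normalization.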

[1] = system: primary human chondrocyte pellet cultures; assay: Chondrogenesis activity assay in primary human chondrocyte pellet cultures (proteoglycan (aggrecan) induction, Blyscan assay); type: cell-based; conditions: for EC50: 336 h, proteoglycan (aggrecan) induction, primary human chondrocyte pellets, 2 weeks culture; for Emax: Homo sapiens, Chondrocyte, maximum percent proteoglycan (aggrecan) induction relative to the internal reference compound at 10 μM
Protocol: B) Chondrogenesis Activity Assay in Primary Human Chondrocyte Pellet Cultures
In this assay human articular chondrocytes are harvested by enzymatic digestion from articular cartilage and passaged several times to dedifferentiate the chondrocytes and to propagate the cells. Cells are cultured as cell pellets in the presence of the compounds of the invention over 2 weeks, and the chondrogenic differentiation is quantified by the production of the chondrogenic marker aggrecan (proteoglycan).
In detail, primary chondrocytes were harvested by enzymatic digestion from cartilage of osteoarthritis patients undergoing knee joint replacement surgery, and cultured in vitro. Cells were passaged one or two times and aliquots were cryopreserved. To initiate chondrogenesis experiments, cell aliquots were thawn, cultured in Chondrocyte Growth Medium (CGM, Lonza, #CC-3216) and passaged twice to further propagate and dedifferentiate cells. Pellet cultures were initiated by seeding 2.5×10E5 cells per well into a 96-well deep well plate in 600 μl chondrocyte differentiation medium consisting of Dulbecco's Modified Eagle Medium (DMEM, Invitrogen, #41966), 1×ITS-solution (Insulin/Transferrin/sodium selenite; 100× solution: Invitrogen, #51500056), 5 μg/mL linoleic acid (Sigma, #L1012-1G), 1× nonessential amino acids (100× solution: Invitrogen, #11140); 10 nM Dexamethasone, 2 ng/ml TGF-β1 (transforming growth factor β1) and 10 μg/ml ascorbic acid. Cells were spun to pellets by centrifugation (10 min, 400×g). Test compounds dissolved in DMSO were added to yield increasing compound concentrations, typically from 40 nM to 10 μM, and a final DMSO concentration of 0.1%, and the cell pellets cultured at 37° C., and 5% CO2 for 2 weeks. On each 96-well plate, control wells containing no test compound but the same concentration of DMSO, i.e. untreated cells, were included and used as reference for the determination of the effect of the test compounds on the cells, and wells containing an internal reference compound at a concentration of 10 μM were included and used as positive control and for standardizing the results. Chondrocyte differentiation medium and the compounds were exchanged twice weekly until harvest of the pellets.
For harvest of the pellets, medium was removed and the pellet was homogenized by enzymatic digestion. 100 μl of protease solution containing 0.4 mg/ml papain, 50 mM sodium phosphate, 4 mM EDTA and 0.48 mg/ml L-cysteine was added to the pellet in each well of a 96-well plate, the plate was sealed with a plate sealer foil (SILVERseal, Greiner Bio-One) and incubated for 4 to 6 hours at 65° C. with agitation.
The concentration of proteoglycan (aggrecan) was determined by quantification of the sulfated glycosaminoglycan side chains of aggrecan using the Blyscan assay (Kit from Biocolor). Aliquots of the papain-digest were transferred to 400 μl of Blyscan dye solution and incubated at room temperature for 45 min with agitation (1200 rpm). The mixture was centrifuged at 3760×g for 45 min, the supernatant was discarded, and the stained pellet was redissolved in 400 μl of Blyscan dissociation reagent by rotation until the precipitate completely resolved. Optical density was measured at 656 nm using a Tecan Saphire2 instrument, and the amount of proteoglycan determined against a standard curve with chondroitin-4-sulfate.
Induction of proteoglycan (aggrecan) was calculated for each compound concentration relative to the control (untreated cells, i.e. no test compound added), and an EC50 value (effective concentration 50 (in μM (micromollliter)), i.e. the compound concentration at which the effect of the compound on proteoglycan (aggrecan) induction reaches 50% of the maximum induction) was calculated using a sigmoidal signal fit procedure. […]

EC50 (ATDC5 cells)	Compound	Emax (ATDC5 cells)	EC50 [1]	Emax [1]
> 1.1 µM	COc1ccc(-c2cc(Cl)cc3c2[nH]c2c(C)nccc23)nc1N [Example 218, 6-(6-Chloro-1-methyl-9H-pyrido[3,4-b]indol-8-yl)-3-methoxy-pyridin-2-ylamine]	< 20%	40 µM	< 40%
0.52 µM	Clc1cc(-c2cnn(Cc3cccnc3)c2)c2c(c1)c1ccncc1n2CC1CC1 [Example 288, 6-Chloro-9-cyclopropylmethyl-8-(1-pyridin-3-ylmethyl-1H-pyrazol-4-yl)-9H-pyrido[3,4-b]indole]	> 80%	1.2 µM	> 200%
> 1.1 µM	Cc1nccc2c1[nH]c1c(-c3ccnc(F)c3Br)cc(Cl)cc12 [Example 245, 8-(3-Bromo-2-fluoro-pyridin-4-yl)-6-chloro-1-methyl-9H-pyrido[3,4-b]indole]	< 20%	10 µM	40 to 100%
> 1.1 µM	Cc1nccc2c1[nH]c1c(-c3ccc(C(=O)NCCN(C)C)cc3)cc(Cl)cc12 [Example 264, 4-(6-Chloro-1-methyl-9H-pyrido[3,4-b]indol-8-yl)-N-(2-dimethylamino-ethyl)-benzamide]	20 to 50%	1.5 µM	40 to 100%
> 3.3 µM	COc1nc(Cl)ccc1-c1cc(Cl)cc2c1[nH]c1c(C)nccc12 [Example 122, 6-Chloro-8-(6-chloro-2-methoxy-pyridin-3-yl)-1-methyl-9H-pyrido[3,4-b]indole]	20 to 50%	3.6 µM	100 to 200%
> 3.3 µM	Cc1nccc2c1[nH]c1c(-c3cccc(C(O)c4ccccn4)c3)cc(Cl)cc12 (centres unmarked) [Example 258, [3-(6-Chloro-1-methyl-9H-pyrido[3,4-b]indol-8-yl)-phenyl]-pyridin-2-yl-methanol]	< 20%	8.2 µM	40 to 100%
3.9 µM	FC(F)(F)Cn1c2cnccc2c2cc(Cl)cc(-c3cnn(-c4ccccc4)c3)c21 [Example 11, 6-Chloro-8-(1-phenyl-1H-pyrazol-4-yl)-9-(2,2,2-trifluoroethyl)-9H-pyrido[3,4-b]indole]	50 to 80%	7.9 µM	40 to 100%
> 1.1 µM	Cc1nccc2c1[nH]c1c(-c3ccc(OCc4ccc5ccccc5n4)cc3)cc(Cl)cc12 [Example 34, 6-Chloro-1-methyl-8-[4-(quinolin-2-ylmethoxy)-phenyl]-9H-pyrido[3,4-b]indole]	20 to 50%	3.8 µM	> 200%
> 3.3 µM	Cc1nccc2c1[nH]c1c(-c3cccc(NC(=O)Nc4ccc(F)cc4F)c3)cc(Cl)cc12 [Example 230, 1-[3-(6-Chloro-1-methyl-9H-pyrido[3,4-b]indol-8-yl)-phenyl]-3-(2,4-difluoro-phenyl)-urea]	< 20%	21 µM	< 40%
> 1.1 µM	Cc1nccc2c1[nH]c1c(-c3ccc(CNC4CCCC4)cc3)cc(Cl)cc12 [Example 29, [4-(6-Chloro-1-methyl-9H-pyrido[3,4-b]indol-8-yl)-benzyl]-cyclopentyl-amine]	< 20%	1.5 µM	100 to 200%
0.39 µM	CCn1c2c(-c3cnn(Cc4cccnc4)c3)cc(Cl)cc2c2ccnc(C)c21 [Example 116, 6-Chloro-9-ethyl-1-methyl-8-(1-pyridin-3-ylmethyl-1H-pyrazol-4-yl)-9H-pyrido[3,4-b]indole]	> 80%	1.3 µM	100 to 200%
> 1.1 µM	Cc1nccc2c1[nH]c1c(-c3ccnc(N4CCNCC4)c3)cc(Cl)cc12 [Example 213, 6-Chloro-1-methyl-8-(2-piperazin-1-yl-pyridin-4-yl)-9H-pyrido[3,4-b]indole]	< 20%	1.2 µM	100 to 200%
> 1.1 µM	Cc1nccc2c1[nH]c1c(-c3ccc(N4CCN(C)CC4)nc3)cc(Cl)cc12 [Example 118, 6-Chloro-1-methyl-8-[6-(4-methyl-piperazin-1-yl)-pyridin-3-yl]-9H-pyrido[3,4-b]indole]	20 to 50%	1.3 µM	100 to 200%
0.12 µM	Cc1nccc2c1[nH]c1c(-c3ccc(OCC4(C)COC4)cc3)cc(Cl)c(C)c12 [Example 8, 6-Chloro-1,5-dimethyl-8-[4-(3-methyl-oxetan-3-ylmethoxy)-phenyl]-9H-pyrido[3,4-b]indole]	> 80%	0.26 µM	100 to 200%
> 3.3 µM	Cc1nccc2c1[nH]c1c(-c3ccnc(N4CCN(C)CC4)c3)cc(Cl)cc12 [Example 214, 6-Chloro-1-methyl-8-[2-(4-methyl-piperazin-1-yl)-pyridin-4-yl]-9H-pyrido[3,4-b]indole]	< 20%	1.3 µM	100 to 200%
0.71 µM	FC(F)(F)Cn1c2cnccc2c2cc(Cl)cc(-c3cnn(Cc4cccnc4)c3)c21 [Example 2, 6-Chloro-8-(1-(pyridin-3-ylmethyl)-1H-pyrazol-4-yl)-9-(2,2,2-trifluoroethyl)-9H-pyrido[3,4-b]indole]	> 80%	4.4 µM	> 200%
0.12 µM	Cc1nccc2c1[nH]c1c(-c3ccc(OCCn4cccn4)cc3)cc(Cl)cc12 [Example 13, 6-Chloro-1-methyl-8-[4-(2-(1H-pyrazol-1-yl)ethoxy)-phenyl]-9H-pyrido[3,4-b]indole]	> 80%	1.1 µM	> 200%
> 10 µM	FC(F)(F)Cn1c2cnccc2c2cc(Cl)cc(-c3cnn(-c4c(Cl)cccc4Cl)c3)c21 [Example 167, 6-Chloro-8-[1-(2,6-dichloro-phenyl)-1H-pyrazol-4-yl]-9-(2,2,2-trifluoro-ethyl)-9H-pyrido[3,4-b]indole]	20 to 50%	13 µM	< 40%
0.33 µM	COc1ccc(-c2cc(Cl)cc3c2[nH]c2c(C)nccc23)cc1 [Example 149, 6-Chloro-8-(4-methoxy-phenyl)-1-methyl-9H-pyrido[3,4-b]indole]	> 80%	1.1 µM	100 to 200%
0.65 µM	CCn1c2cnccc2c2cc(Cl)cc(-c3ccc(Cl)nc3Cl)c21 [Example 55, 6-Chloro-8-(2,6-dichloro-pyridin-3-yl)-9-ethyl-9H-pyrido[3,4-b]indole]	> 80%	0.95 µM	100 to 200%
> 1.1 µM	Cc1nccc2c1[nH]c1c(-c3cccc(C(=O)NCCN(C)C)c3)cc(Cl)cc12 [Example 265, 3-(6-Chloro-1-methyl-9H-pyrido[3,4-b]indol-8-yl)-N-(2-dimethylamino-ethyl)-benzamide]	< 20%	3.8 µM	< 40%
1.1 µM	CCn1c2c(-c3cnn(Cc4ccccn4)c3)cc(Cl)cc2c2ccnc(C)c21 [Example 244, 6-Chloro-9-ethyl-1-methyl-8-(1-pyridin-2-ylmethyl-1H-pyrazol-4-yl)-9H-pyrido[3,4-b]indole]	> 80%	4.9 µM	> 200%
> 3.3 µM	CCc1cc2c([nH]c3c(-c4ccc(OCCn5cccn5)cc4)cc(Br)cc32)c(C)n1 [Example 212, 6-Bromo-3-ethyl-1-methyl-8-[4-(2-pyrazol-1-yl-ethoxy)-phenyl]-9H-pyrido[3,4-b]indole]	< 20%	8.9 µM	< 40%
